# Key:
# Type in all cases: cell-based
# [1] = system: human immortalized podocytes inducibly expressing APOL1 G2; test: APOL1 G2 podocyte cell rescue assay (Example B4); conditions: differentiated human podocytes, doxycycline-induced APOL1 G2, CellTiter-Glo, geometric mean of at least 2 runs, † = single run
# Protocol: APOL1 G2 human immortalized podocyte viability assay for measurement of cytotoxicity reversal by compound (APOL1 G2 podocyte cell rescue assay).
# Cell Handling. The hTERT-immortalized kidney podocyte cell line was procured from the laboratory of Dr. Moin Saleem at the University of Bristol, UK (Nephrology 17 (2012) 525-531; doi:10.1111/j.1440-1797.2012.01619.x; herein incorporated by reference in its entirety). Parental and engineered cell lines were cultured in RPMI 1640 media (Gibco, 11875093) with 10% Tet System Approved FBS (Takara, 631101). The engineered cell line was maintained under selection (2.5 μg/mL puromycin). Cell lines were maintained and engineered at 33° C. Cell cultures were transferred to 37° C. for 10 to 14 days to initiate differentiation (Nephrology 17 (2012) 525-531; doi:10.1111/j.1440-1797.2012.01619.x; herein incorporated by reference in its entirety). During this time, media was refreshed every 3 days. After differentiation, cells engineered to inducibly express APOL1 G2 were used in the podocyte cell rescue assay.
# Cell Line Engineering. The APOL1 G2 coding sequence was cloned into the pLVX-TetOne-Puro vector and verified by sequencing (Genscript Biotech). This construct was designed to have a C-terminal HiBiT tag. Lentiviral packaging of the vector was conducted using the Lenti-X Packaging Single Shots (VSVG) system according to manufacturer instructions (Takara Bio, 631275). A stable cell line was generated by transfecting the parental podocyte cell line with the concentrated virus in media with 5 μg/mL polybrene (Sigma, TR-1003-G). Media was changed the following day. 72 hours post transfection, 2.5 μg/mL puromycin (Gibco, A1113803) was added to the cells and cells were maintained in selection media thereafter. This APOL1 G2 stable cellular pool was subjected to a stringent limiting dilution to generate a pure stable clone (Podocyte/pLVX-TetOne APOL1 G2/clone D10) capable of inducible expression of APOL1 G2.
# Assay Setup. T175 flasks containing differentiated podocytes engineered to inducibly express APOL1 G2 (Podocyte/pLVX-TetOne APOL1 G2/clone D10) were washed once with 15 mL of DPBS (Thermo Fisher, 14190-144). These flasks were each trypsinized with 3 mL of prewarmed TrypLE Express (Gibco, 12605-010) and incubated at 37° C. with 5% CO2 until cells detached and neutralized with 7 mL of prewarmed assay media (RPMI 1640 media with 10% Tet System Approved FBS, no selection agent). Cells were pooled and the resulting suspension was gently mixed. The cell suspension was counted using a Countess Cell Counting Chamber (Invitrogen) and the cell concentration was adjusted to 240,000 cells/mL using assay media. Next, 25 μL of a 480 ng/mL working stock of doxycycline diluted in assay media was added to an assay ready plate. All experiments were performed in 384-well, white, solid bottom, tissue culture treated plates (Greiner, 781080). The assay ready compound plates were generated with duplicate 8-point compound dilution series that consisted of 3-fold stepwise dilutions (0.4% DMSO final). The plates were centrifuged at 1000 rpm for 1 minute. 25 μL of diluted cell suspension (final cell density=6,000 cells/well) was added to each well. The plates were centrifuged again at 1000 rpm for 1 minute and then incubated in a humidified incubator (37° C. with 5% CO2). After 95 hours, the assay plates were removed from the incubator and allowed to equilibrate to room temperature for 1 hour. CellTiter-Glo® reagent (Promega, G7570) was prepared according to the manufacturer's instructions. 25 μL of CellTiter-Glo® reagent was added to each well. Assay plates were sealed with foil and mixed for 5 minutes on an orbital shaker (500 rpm) to induce cell lysis. Plates were centrifuged at 1000 rpm for 1 minute. 10 minutes after CellTiter-Glo® reagent addition, an Envision plate reader (Perkin Elmer) was used to measure the luminescent signal of each assay plate. Collaborative Drug Discovery software was utilized for graphing data. […]
# [2] = system: HEK293 clonal cell line overexpressing APOL1 G1; test: APOL1 G1 HEK293 cell rescue assay (Example B3); conditions: geometric mean of at least 2 runs, † = single run, ¥ = concentration at 50% rescue estimated (no sigmoidal curve)
# How it was run: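 HEK293 clonal line overexpressing APOL1 G1; EC50 is half-maximal reversal of APOL1-induced cell death. Values are the geometric mean of ≥2 runs on separate days, each run the average of duplicate wells. Where no sigmoidal curve could be fitted, the concentration giving 50% rescue was estimated.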
# [3] = system: HEK293 cells overexpressing APOL1 G2; test: APOL1 G2 HEK293 cell rescue assay (reversal of cell death caused by overexpression of APOL1); conditions: geometric mean of at least 2 assay runs, † = single assay run
# How it was run: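 EC50 is the half-maximal effective concentration for reversing cell death driven by APOL1 G2 overexpression in HEK293 cells. Reported as geometric mean of at least 2 runs on separate days, each run averaging duplicate wells per plate; some values from a single run.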
# [4] = Homo sapiens, HEK293, HEK293 clonal line overexpressing APOL1 G1
# [5] = Homo sapiens, HEK293, HEK293 overexpressing APOL1 G2
Compound,EC50 [1] [nM],"EC50 [2, 4] [nM]","EC50 [3, 5] [nM]",EC50 ([2]; HEK293 clonal line overexpressing APOL1 G1) [nM],EC50 ([3]; HEK293 overexpressing APOL1 G2) [nM],EC50 ([1]; Homo sapiens) [nM]
"O=C(NC1CCS(=O)(=O)C1)c1ccc(OCCN2CCC3(CC2)C(=O)Nc2ccc(Cl)cc23)cc1F (single isomer, unassigned) [Compound 242, 4-(2-{5-chloro-2-oxo-1,2-dihydrospiro[indole-3,4′-piperidin]-1′-yl}ethoxy)-N-[(3S) or (3R)-1,1-dioxo-1λ^6-thiolan-3-yl]-2-fluorobenzamide]",19.7,316,74,–,–,–
"O=C(NC1CCS(=O)(=O)C1)c1ccc(OCCN2CCC3(CC2)C(=O)Nc2ccc(Cl)cc23)cc1F (single isomer, unassigned) [Compound 243, 4-(2-{5-chloro-2-oxo-1,2-dihydrospiro[indole-3,4′-piperidin]-1′-yl}ethoxy)-N-[(3R) or (3S)-1,1-dioxo-1λ^6-thiolan-3-yl]-2-fluorobenzamide]",4.11,–,–,208,46,–
"O=C(NC1CCS(=O)(=O)CC1)c1ccc(OCCN2CCC3(CC2)C(=O)Nc2ccc(Cl)cc23)cc1F [Compound 240, 4-(2-{5-chloro-2-oxo-1,2-dihydrospiro[indole-3,4′-piperidin]-1′-yl}ethoxy)-N-(1,1-dioxo-1λ^6-thian-4-yl)-2-fluorobenzamide]",–,282,52.6,–,–,13.9
"O=C1Nc2ccc(Cl)cc2C12CCN(CCOc1cnc(CCO)nc1)CC2 [Compound 331, 5-chloro-1′-(2-{[2-(2-hydroxyethyl)pyrimidin-5-yl]oxy}ethyl)-1,2-dihydrospiro[indole-3,4′-piperidin]-2-one]",–,440,166,–,–,85.7

# Reference: US12344610B2, “APOL1 inhibitors and methods of use” (Maze Therapeutics, Inc., priority 2022, dated 2025)
